The subject of one series is HIV-1, GVK4046. The series is described as follows: HIV-1 reproduction inhibition in MT-4 cell culture (p24 ELISA and MTT cell vitality, day 4). It is filed as cell-based. Conditions: HIV-1, GVK4046 in MT-4 cell culture, 4 days; read-out: ID50 (the source's name). On the procedure:
The HIV inhibition study includes cultivation of primary infective MT-4 line lymphoid cells over the studied compounds, the ultimate concentrations of which in the culture medium range from 0.001 µg/ml to 100 µg/ml, during one passage, within 4 days.
HIV reproduction inhibition in the sensitive cell culture is determined by the reduction in p24 virus-specific protein accumulation (according to the enzyme-linked immunosorbent assay) and by the increase in cell vitality over the drug as compared with the reference cells, on Day 4 of the cultivation, using 3-(4.5-dimethylthiazole-2-yl-)-2,5-diphenyl tetrazolium (MTT) bromide staining.
The impact of the studied compounds on HIV-1 reproduction in MT-4 cell culture is studied using a well-known technique.
Background: ELISA stands for enzyme-linked immunosorbent assay.

Series [1] can be described thus: Stability analysis of 1% water solutions at room temperature. The class given is physicochemical. The settings on record: within a month. On the procedure: The stability analysis for the obtained compounds in the form of 1% water solutions at room temperature was carried out. The acid form of the carbamoyl phosphonate and ammonia salt degrade by 40% and 2%, respectively, within a month; no destruction products were detected for the rest of salts within a month.

The subject of the next series is MT-4 cells. The series is described as follows: Cytotoxicity assessment in MT-4 cells (MTT / formazan method, 4 days). It is filed as cell-based. Conditions: concentration that reduces MT-4 cell vitality by 50%, day 4, MTT. On the procedure:
Cytotoxicity of a drug is estimated by adding its delution in RPMI-1640 serum-free medium to MT-4 cell suspension placed in cavities of the 96-cavity board (Cel-Cult, England), up to the ultimate concentrations of 0.001-100 µg/ml (three cavities per dose), with subsequent cultivation at 37°C within 4 days. The inoculation concentration is 0.5x10^6 cell particles in 1 mm. The cells, to which the drug was not added and was substituted with the same quantity of the serum-free medium, serve as the reference. The cell vitality is counted on Day 4 of cultivation, using the formazan method (intravital staining of MTT cells). Toxicity of different drug doses is determined by the cell vitality as compared with the reference cells; the dose-dependent curve is built using obtained data, and the concentration that reduces cell vitality by 50% (CD50) is determined. […] It is also noteworthy that 50% toxic doses exceed HIV-1 effective doses by a factor of 2-4 (see Table 1) .

Consider one compound from EP2767543B1, “SALTS OF CARBAMOYL PHOSPHONIC ACID ESTERS WHICH ACT AS SELECTIVE INHIBITORS OF HUMAN IMMUNODEFICIENCY VIRUS HIV-1 PRODUCTION” (Aktsionernoe Obshcestvo "Proizvodstvenno-Kommercheskaya …, priority 2011, dated 2013).

SMILES strings stand for the structures.

As to `Cc1cn([C@H]2C[C@H](N=[N+]=[N-])[C@@H](COP(=O)(O)C(N)=O)O2)c(=O)[nH]c1=O` [Acid form (reference), [(2S,3S,5R)-3-azido-5-(5-methyl-2,4-deoxythymidine-1-yl)oxolan-2-yl]methyl ester of carbamoyl phosphonic acid, reference compound], the IC50 in the series with HIV-1, GVK4046 was found to be 800 nM. Also, the degrade in series [1] is recorded as 40%. The compound further yielded a CD50 with MT-4 cells of 2.6 µM.
